Reference: ChEMBL document CHEMBL3885861, “Open TG-GATES”

Species: Rattus norvegicus
Assay: Open TG-GATES - Regimen: Single
Type: toxicity, organism-based, Sprague-Dawley
Parameters: regimen Single, gender Male, age 6 weeks
Settings: in vivo, po, route gavage; for APTT / Bas / Eos / Fbg / Hb / Ht / Lym / MCH / MCHC / MCV / Mono / Neu / PT / Plat / RBC / Ret / WBC: tissue Blood; for KIDNEY_L / KIDNEY_R / KIDNEY_TOTAL: tissue Kidney; for LIVER: tissue Liver; for A/G / ALP / ALT / AST / BUN / CRE / Ca / Cl / DBIL / GLC / IP / K / LDH / Na / PL / RALB / TBIL / TC / TG / TP / gamma-GTP: tissue Plasma
[1] = 30 mg/kg, 3 h, dose level Middle
[2] = 30 mg/kg, 6 h, dose level Middle
[3] = 30 mg/kg, 9 h, dose level Middle
[4] = 30 mg/kg, 24 h, dose level Middle
[5] = 100 mg/kg, 3 h, dose level High
[6] = 100 mg/kg, 6 h, dose level High
[7] = 100 mg/kg, 9 h, dose level High
[8] = 100 mg/kg, 24 h, dose level High

CN(C)CCN(Cc1cccs1)c1ccccn1
TERMINAL_BW [1]: 182 g
APTT [1]: 21.9 s
Bas [1]: 0%
Eos [1]: 0.6%
Fbg [1]: 308.2 mg/dL
Hb [1]: 13 g/dL
Ht [1]: 39.6%
Lym [1]: 80.2%
MCH [1]: 21.6 pg
MCHC [1]: 32.8%
MCV [1]: 65.9 fL
Mono [1]: 2.2%
Neu [1]: 15.8%
PT [1]: 16.1 s
Plat [1]: 115.9 x10_4/uL
RBC [1]: 603 x10_4/ul
Ret [1]: 7.3%
WBC [1]: 81.5 x10_2/uL
KIDNEY_L [1]: 0.8 g
KIDNEY_R [1]: 0.9 g
KIDNEY_TOTAL [1]: 1.7 g
LIVER [1]: 8.3 g
A/G [1]: 1.3
ALP [1]: 1624.8 IU/L
ALT [1]: 41.4 IU/L
AST [1]: 73.6 IU/L
BUN [1]: 13 mg/dL
CRE [1]: 0.2 mg/dL
Ca [1]: 10.5 mg/dL
Cl [1]: 107.6 meq/L
DBIL [1]: 0 mg/dL
GLC [1]: 179 mg/dL
IP [1]: 8.4 mg/dL
K [1]: 4.4 meq/L
LDH [1]: 201.8 IU/L
Na [1]: 142.8 meq/L
PL [1]: 140.4 mg/dL
RALB [1]: 3 g/dL
TBIL [1]: 0.016 mg/dL
TC [1]: 75.4 mg/dL
TG [1]: 53.4 mg/dL
TP [1]: 5.4 g/dL
gamma-GTP [1]: 1 IU/L
TERMINAL_BW [2]: 186.2 g
APTT [2]: 21.5 s
Bas [2]: 0%
Eos [2]: 0.6%
Fbg [2]: 292.6 mg/dL
Hb [2]: 12.6 g/dL
Ht [2]: 38.7%
Lym [2]: 74.6%
MCH [2]: 21 pg
MCHC [2]: 32.7%
MCV [2]: 64 fL
Mono [2]: 2%
Neu [2]: 22%
PT [2]: 16.9 s
Plat [2]: 117.9 x10_4/uL
RBC [2]: 604 x10_4/ul
Ret [2]: 7.6%
WBC [2]: 62.8 x10_2/uL
KIDNEY_L [2]: 0.8 g
KIDNEY_R [2]: 0.9 g
KIDNEY_TOTAL [2]: 1.7 g
LIVER [2]: 8 g
A/G [2]: 1.2
ALP [2]: 1536.2 IU/L
ALT [2]: 34.2 IU/L
AST [2]: 71.2 IU/L
BUN [2]: 12.8 mg/dL
CRE [2]: 0.1 mg/dL
Ca [2]: 10.5 mg/dL
Cl [2]: 106.2 meq/L
DBIL [2]: 0 mg/dL
GLC [2]: 173 mg/dL
IP [2]: 9.2 mg/dL
K [2]: 4.5 meq/L
LDH [2]: 178 IU/L
Na [2]: 141.6 meq/L
PL [2]: 142.4 mg/dL
RALB [2]: 2.8 g/dL
TBIL [2]: 0.024 mg/dL
TC [2]: 82.6 mg/dL
TG [2]: 53 mg/dL
TP [2]: 5.3 g/dL
gamma-GTP [2]: 1 IU/L
TERMINAL_BW [3]: 183.7 g
APTT [3]: 20.6 s
Bas [3]: 0%
Eos [3]: 0.6%
Fbg [3]: 290.8 mg/dL
Hb [3]: 12.9 g/dL
Ht [3]: 38.4%
Lym [3]: 74%
MCH [3]: 21.1 pg
MCHC [3]: 33.5%
MCV [3]: 63.1 fL
Mono [3]: 2.2%
Neu [3]: 22.2%
PT [3]: 15.5 s
Plat [3]: 124.7 x10_4/uL
RBC [3]: 608.8 x10_4/ul
Ret [3]: 7.7%
WBC [3]: 66.5 x10_2/uL
KIDNEY_L [3]: 0.8 g
KIDNEY_R [3]: 0.8 g
KIDNEY_TOTAL [3]: 1.7 g
LIVER [3]: 7.5 g
A/G [3]: 1.2
ALP [3]: 1582.8 IU/L
ALT [3]: 35.8 IU/L
AST [3]: 69.8 IU/L
BUN [3]: 11.2 mg/dL
CRE [3]: 0.1 mg/dL
Ca [3]: 10.3 mg/dL
Cl [3]: 106.8 meq/L
DBIL [3]: 0.002 mg/dL
GLC [3]: 166.6 mg/dL
IP [3]: 9.9 mg/dL
K [3]: 4.5 meq/L
LDH [3]: 205.6 IU/L
Na [3]: 141.8 meq/L
PL [3]: 131 mg/dL
RALB [3]: 3 g/dL
TBIL [3]: 0.022 mg/dL
TC [3]: 77.4 mg/dL
TG [3]: 42.2 mg/dL
TP [3]: 5.5 g/dL
gamma-GTP [3]: 1 IU/L
TERMINAL_BW [4]: 198 g
APTT [4]: 20 s
Bas [4]: 0%
Eos [4]: 0.8%
Fbg [4]: 308 mg/dL
Hb [4]: 12.9 g/dL
Ht [4]: 38.8%
Lym [4]: 84.4%
MCH [4]: 20.6 pg
MCHC [4]: 33.2%
MCV [4]: 62.1 fL
Mono [4]: 1.6%
Neu [4]: 12.4%
PT [4]: 16.8 s
Plat [4]: 124 x10_4/uL
RBC [4]: 625.6 x10_4/ul
Ret [4]: 6.8%
WBC [4]: 67.2 x10_2/uL
KIDNEY_L [4]: 0.9 g
KIDNEY_R [4]: 0.9 g
KIDNEY_TOTAL [4]: 1.8 g
LIVER [4]: 9.3 g
A/G [4]: 1.2
ALP [4]: 1883 IU/L
ALT [4]: 46.4 IU/L
AST [4]: 74.8 IU/L
BUN [4]: 15.4 mg/dL
CRE [4]: 0.2 mg/dL
Ca [4]: 10.9 mg/dL
Cl [4]: 106 meq/L
DBIL [4]: 0.004 mg/dL
GLC [4]: 179.8 mg/dL
IP [4]: 7.3 mg/dL
K [4]: 4.4 meq/L
LDH [4]: 254.8 IU/L
Na [4]: 142.4 meq/L
PL [4]: 143.2 mg/dL
RALB [4]: 3 g/dL
TBIL [4]: 0.008 mg/dL
TC [4]: 73.4 mg/dL
TG [4]: 124.6 mg/dL
TP [4]: 5.5 g/dL
gamma-GTP [4]: 1.2 IU/L
TERMINAL_BW [5]: 184.9 g
APTT [5]: 21.5 s
Bas [5]: 0%
Eos [5]: 0.8%
Fbg [5]: 290.4 mg/dL
Hb [5]: 13.2 g/dL
Ht [5]: 40.2%
Lym [5]: 74%
MCH [5]: 20.6 pg
MCHC [5]: 32.9%
MCV [5]: 62.8 fL
Mono [5]: 2%
Neu [5]: 22.2%
PT [5]: 16.3 s
Plat [5]: 121.5 x10_4/uL
RBC [5]: 640.8 x10_4/ul
Ret [5]: 7.2%
WBC [5]: 60.8 x10_2/uL
KIDNEY_L [5]: 0.8 g
KIDNEY_R [5]: 0.9 g
KIDNEY_TOTAL [5]: 1.7 g
LIVER [5]: 8 g
A/G [5]: 1.2
ALP [5]: 1601.8 IU/L
ALT [5]: 54.6 IU/L
AST [5]: 82.2 IU/L
BUN [5]: 10.8 mg/dL
CRE [5]: 0.1 mg/dL
Ca [5]: 10.3 mg/dL
Cl [5]: 106.6 meq/L
DBIL [5]: 0.002 mg/dL
GLC [5]: 185 mg/dL
IP [5]: 8.3 mg/dL
K [5]: 4.3 meq/L
LDH [5]: 258.8 IU/L
Na [5]: 142.4 meq/L
PL [5]: 121.4 mg/dL
RALB [5]: 2.9 g/dL
TBIL [5]: 0.012 mg/dL
TC [5]: 69.8 mg/dL
TG [5]: 36 mg/dL
TP [5]: 5.4 g/dL
gamma-GTP [5]: 1 IU/L
TERMINAL_BW [6]: 183.8 g
APTT [6]: 21.3 s
Bas [6]: 0%
Eos [6]: 0.4%
Fbg [6]: 282.2 mg/dL
Hb [6]: 13.1 g/dL
Ht [6]: 39.5%
Lym [6]: 76%
MCH [6]: 21.6 pg
MCHC [6]: 33.3%
MCV [6]: 64.8 fL
Mono [6]: 2.4%
Neu [6]: 20.6%
PT [6]: 16.6 s
Plat [6]: 120.5 x10_4/uL
RBC [6]: 610 x10_4/ul
Ret [6]: 8.4%
WBC [6]: 73.4 x10_2/uL
KIDNEY_L [6]: 0.8 g
KIDNEY_R [6]: 0.8 g
KIDNEY_TOTAL [6]: 1.7 g
LIVER [6]: 7.5 g
A/G [6]: 1.1
ALP [6]: 1538 IU/L
ALT [6]: 51.2 IU/L
AST [6]: 90.2 IU/L
BUN [6]: 14.6 mg/dL
CRE [6]: 0.2 mg/dL
Ca [6]: 10.5 mg/dL
Cl [6]: 107.4 meq/L
DBIL [6]: 0.004 mg/dL
GLC [6]: 170.2 mg/dL
IP [6]: 9.4 mg/dL
K [6]: 4.5 meq/L
LDH [6]: 259.2 IU/L
Na [6]: 141.8 meq/L
PL [6]: 110 mg/dL
RALB [6]: 2.8 g/dL
TBIL [6]: 0.02 mg/dL
TC [6]: 64.8 mg/dL
TG [6]: 33.4 mg/dL
TP [6]: 5.2 g/dL
gamma-GTP [6]: 1 IU/L
TERMINAL_BW [7]: 183.7 g
APTT [7]: 21.3 s
Bas [7]: 0%
Eos [7]: 0.8%
Fbg [7]: 284.6 mg/dL
Hb [7]: 13.2 g/dL
Ht [7]: 39.6%
Lym [7]: 72.2%
MCH [7]: 21.1 pg
MCHC [7]: 33.3%
MCV [7]: 63.5 fL
Mono [7]: 3.6%
Neu [7]: 22.6%
PT [7]: 16.2 s
Plat [7]: 122.3 x10_4/uL
RBC [7]: 624.2 x10_4/ul
Ret [7]: 7.6%
WBC [7]: 71.6 x10_2/uL
KIDNEY_L [7]: 0.8 g
KIDNEY_R [7]: 0.9 g
KIDNEY_TOTAL [7]: 1.7 g
LIVER [7]: 7.8 g
A/G [7]: 1.2
ALP [7]: 1538 IU/L
ALT [7]: 60.2 IU/L
AST [7]: 100.6 IU/L
BUN [7]: 11 mg/dL
CRE [7]: 0.1 mg/dL
Ca [7]: 10.1 mg/dL
Cl [7]: 107.6 meq/L
DBIL [7]: 0 mg/dL
GLC [7]: 172.8 mg/dL
IP [7]: 9.7 mg/dL
K [7]: 4.2 meq/L
LDH [7]: 233.6 IU/L
Na [7]: 141.8 meq/L
PL [7]: 117 mg/dL
RALB [7]: 2.9 g/dL
TBIL [7]: 0.022 mg/dL
TC [7]: 68 mg/dL
TG [7]: 35 mg/dL
TP [7]: 5.3 g/dL
gamma-GTP [7]: 1.2 IU/L
TERMINAL_BW [8]: 193.3 g
APTT [8]: 20.8 s
Bas [8]: 0%
Eos [8]: 0.8%
Fbg [8]: 275.2 mg/dL
Hb [8]: 13 g/dL
Ht [8]: 39.4%
Lym [8]: 73.2%
MCH [8]: 20.7 pg
MCHC [8]: 32.9%
MCV [8]: 62.9 fL
Mono [8]: 2.8%
Neu [8]: 22.2%
PT [8]: 17.3 s
Plat [8]: 114.4 x10_4/uL
RBC [8]: 627 x10_4/ul
Ret [8]: 7%
WBC [8]: 61.6 x10_2/uL
KIDNEY_L [8]: 0.8 g
KIDNEY_R [8]: 0.9 g
KIDNEY_TOTAL [8]: 1.7 g
LIVER [8]: 9.1 g
A/G [8]: 1.3
ALP [8]: 1813.6 IU/L
ALT [8]: 68.4 IU/L
AST [8]: 109.6 IU/L
BUN [8]: 16 mg/dL
CRE [8]: 0.2 mg/dL
Ca [8]: 10.7 mg/dL
Cl [8]: 106.6 meq/L
DBIL [8]: 0.004 mg/dL
GLC [8]: 172 mg/dL
IP [8]: 7.8 mg/dL
K [8]: 4.4 meq/L
LDH [8]: 260.2 IU/L
Na [8]: 143.2 meq/L
PL [8]: 136 mg/dL
RALB [8]: 2.9 g/dL
TBIL [8]: 0.01 mg/dL
TC [8]: 70.8 mg/dL
TG [8]: 65.2 mg/dL
TP [8]: 5.2 g/dL
gamma-GTP [8]: 1 IU/L
